Test results reported in US7880007B2, “Bicyclic substituted phenyl piperidine modulators of muscarinic receptors” (Vertex Pharmaceuticals Incorporated, priority 2004, dated 2011).

Key:
Type in all cases: cell-based
M1 muscarinic receptor = molecular target: T1, M1 muscarinic receptor (Homo sapiens, UniProt P11229); assay: Functional mobilization of intracellular calcium (FLIPR), M1-CHO cells; details: for M1 Activity: M1-CHO cells, calcium mobilization (FLIPR)
T1 construct: expressed in transfected cells; host or cells: CHO (M1-CHO)
T1 sequence (P11229 1-460): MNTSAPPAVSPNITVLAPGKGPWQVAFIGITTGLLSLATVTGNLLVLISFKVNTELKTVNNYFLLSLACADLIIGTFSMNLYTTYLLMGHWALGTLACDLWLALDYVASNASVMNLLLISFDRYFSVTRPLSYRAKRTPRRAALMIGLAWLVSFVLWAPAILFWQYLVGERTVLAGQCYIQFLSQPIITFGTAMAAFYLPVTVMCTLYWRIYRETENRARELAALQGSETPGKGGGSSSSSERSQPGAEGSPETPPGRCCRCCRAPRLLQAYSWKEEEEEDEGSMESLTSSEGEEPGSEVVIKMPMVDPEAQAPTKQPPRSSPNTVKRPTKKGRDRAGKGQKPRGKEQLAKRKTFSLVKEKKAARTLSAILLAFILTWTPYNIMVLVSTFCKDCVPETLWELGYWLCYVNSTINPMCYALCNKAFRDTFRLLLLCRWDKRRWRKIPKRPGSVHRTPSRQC
Summary of the method: (§1)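 FLIPR fluorescence (ex 488, em 540 nm) recorded 60 sec after compound addition to dye-loaded CHO cells. Agonist mode: compound alone. Antagonist mode: 15 min compound pre-incubation, then carbachol at EC80, or co-application. Efficacy expressed as % of maximal carbachol response.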

M2 muscarinic receptor = molecular target: T2, M2 muscarinic receptor (Homo sapiens, UniProt P08172); assay: Functional mobilization of intracellular calcium (FLIPR), M2-CHO cells; details: for M2 Activity: M2-CHO cells, calcium mobilization (FLIPR)
T2 construct: expressed in transfected cells; host or cells: CHO (M2-CHO)
T2 sequence (P08172 1-466): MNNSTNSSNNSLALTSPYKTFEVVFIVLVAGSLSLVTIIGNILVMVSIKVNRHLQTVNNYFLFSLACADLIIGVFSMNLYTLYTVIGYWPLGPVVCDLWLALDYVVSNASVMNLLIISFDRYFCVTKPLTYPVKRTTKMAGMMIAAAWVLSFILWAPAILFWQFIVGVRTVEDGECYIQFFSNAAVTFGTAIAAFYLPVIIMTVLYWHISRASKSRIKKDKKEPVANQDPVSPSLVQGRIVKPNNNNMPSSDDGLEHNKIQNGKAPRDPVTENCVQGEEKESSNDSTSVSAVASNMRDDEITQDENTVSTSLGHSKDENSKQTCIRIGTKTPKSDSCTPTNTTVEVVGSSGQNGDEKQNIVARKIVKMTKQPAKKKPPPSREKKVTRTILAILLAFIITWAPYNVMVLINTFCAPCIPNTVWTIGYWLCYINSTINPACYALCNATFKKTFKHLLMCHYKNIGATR
Summary of the method: as §1

M3 muscarinic receptor = molecular target: T3, M3 muscarinic receptor (Homo sapiens, UniProt P20309); assay: Functional mobilization of intracellular calcium (FLIPR), M3-CHO cells; details: for M3 Activity: M3-CHO cells, calcium mobilization (FLIPR)
T3 construct: expressed in transfected cells; host or cells: CHO (M3-CHO)
Summary of the method: as §1

M4 muscarinic receptor = molecular target: T4, M4 muscarinic receptor (Homo sapiens, UniProt P08173); assay: Functional mobilization of intracellular calcium (FLIPR), M4-CHO cells; details: for M4 Activity: M4-CHO cells, calcium mobilization (FLIPR)
T4 construct: expressed in transfected cells; host or cells: CHO (M4-CHO)
T4 sequence (P08173 1-479): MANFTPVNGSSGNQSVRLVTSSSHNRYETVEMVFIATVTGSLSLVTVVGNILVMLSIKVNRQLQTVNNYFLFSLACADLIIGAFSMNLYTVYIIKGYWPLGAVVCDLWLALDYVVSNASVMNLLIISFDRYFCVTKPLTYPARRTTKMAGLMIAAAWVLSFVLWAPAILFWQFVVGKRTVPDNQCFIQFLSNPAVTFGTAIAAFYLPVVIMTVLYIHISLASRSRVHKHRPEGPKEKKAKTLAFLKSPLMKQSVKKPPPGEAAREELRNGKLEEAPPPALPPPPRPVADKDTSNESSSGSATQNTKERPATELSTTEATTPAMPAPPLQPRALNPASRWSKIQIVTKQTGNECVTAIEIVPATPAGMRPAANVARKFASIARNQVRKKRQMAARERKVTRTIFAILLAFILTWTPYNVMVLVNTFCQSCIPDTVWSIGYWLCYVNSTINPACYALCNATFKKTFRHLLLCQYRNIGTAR
Summary of the method: as §1

[1] = 100% efficacy = maximum response obtained with the Carbachol control
[2] = 100% efficacy is the maximum response obtained with the Carbachol control

T3 sequence (P20309 whole entry): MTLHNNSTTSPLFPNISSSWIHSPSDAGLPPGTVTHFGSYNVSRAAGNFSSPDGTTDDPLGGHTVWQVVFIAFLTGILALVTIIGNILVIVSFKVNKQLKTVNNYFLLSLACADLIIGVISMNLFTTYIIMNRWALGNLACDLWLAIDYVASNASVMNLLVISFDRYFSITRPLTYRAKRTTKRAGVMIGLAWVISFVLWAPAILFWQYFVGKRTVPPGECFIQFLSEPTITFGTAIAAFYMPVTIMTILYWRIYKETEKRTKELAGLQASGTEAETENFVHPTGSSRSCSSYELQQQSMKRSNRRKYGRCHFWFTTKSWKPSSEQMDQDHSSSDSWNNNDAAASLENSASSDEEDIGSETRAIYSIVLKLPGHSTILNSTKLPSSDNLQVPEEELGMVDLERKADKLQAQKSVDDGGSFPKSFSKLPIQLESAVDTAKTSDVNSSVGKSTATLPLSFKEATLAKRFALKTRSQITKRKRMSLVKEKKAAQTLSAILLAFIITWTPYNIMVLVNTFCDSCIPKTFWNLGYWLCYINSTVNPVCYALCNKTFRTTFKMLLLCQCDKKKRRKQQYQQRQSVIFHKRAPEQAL

SMILES	Emax (M1 muscarinic receptor; [1]) [%]	M1 Activity (M1 muscarinic receptor)	Emax (M2 muscarinic receptor; [1]) [%]	M2 Activity (M2 muscarinic receptor)	Emax (M3 muscarinic receptor; [1]) [%]	M3 Activity (M3 muscarinic receptor)	Emax (M4 muscarinic receptor; [1]) [%]	M4 Activity (M4 muscarinic receptor)	M1 Efficacy (M1 muscarinic receptor; [1])	M2 Efficacy (M2 muscarinic receptor; [1])	M3 Efficacy (M3 muscarinic receptor; [1])	M4 Efficacy (M4 muscarinic receptor; [1])	Emax (M1 muscarinic receptor; [2]) [%]	Emax (M2 muscarinic receptor; [2]) [%]	Emax (M3 muscarinic receptor; [2]) [%]	Emax (M4 muscarinic receptor; [2]) [%]
COc1ccc(C(=O)C(C)(C)C)cc1C1CCN([C@H]2C[C@H]3CC[C@H]2C3)CC1 [Compound 109]	25 to 100	++ (activity was measured to be from 1.0 μM to 5.0 μM)	< 25	+ (activity was measured to be greater than 5.0 μM)	< 25	+ (activity was measured to be greater than 5.0 μM)	25 to 100	+ (activity was measured to be greater than 5.0 μM)	–	–	–	–	–	–	–	–
COc1ccc(Cl)cc1C1CCN(C2CCC(=NOC(C)(C)C)CC2)CC1 (centres unmarked) [Compound 130]	–	++ (activity was measured to be from 1.0 μM to 5.0 μM)	–	+ (activity was measured to be greater than 5.0 μM)	–	+ (activity was measured to be greater than 5.0 μM)	–	+++ (activity was measured to be less than 1.0 μM)	++ (efficacy was calculated to be from 100% to 25%)	+ (efficacy was calculated to be less than 25%)	+ (efficacy was calculated to be less than 25%)	++ (efficacy was calculated to be from 100% to 25%)	–	–	–	–
COc1ccc(F)cc1C1CCN(C2CCCCC2)CC1 [Compound 200]	25 to 100	+++ (activity was measured to be less than 1.0 μM)	25 to 100	++ (activity was measured to be from 1.0 μM to 5.0 μM)	< 25	+ (activity was measured to be greater than 5.0 μM)	25 to 100	+++ (activity was measured to be less than 1.0 μM)	–	–	–	–	–	–	–	–
COc1ccccc1C1CCN(C2C3CC4CC(C3)CC2C4)CC1 (centres unmarked) [Compound 408]	–	+ (activity was measured to be greater than 5.0 μM)	–	+ (activity was measured to be greater than 5.0 μM)	–	+ (activity was measured to be greater than 5.0 μM)	–	+++ (activity was measured to be less than 1.0 μM)	–	–	–	–	25 to 100	< 25	< 25	25 to 100
Cc1c(C2CCN(C3CCOCC3)CC2)cccc1C(F)(F)F [Compound 333]	< 25	+ (activity was measured to be greater than 5.0 μM)	< 25	+ (activity was measured to be greater than 5.0 μM)	< 25	+ (activity was measured to be greater than 5.0 μM)	25 to 100	++ (activity was measured to be from 1.0 μM to 5.0 μM)	–	–	–	–	–	–	–	–
COc1ccc(Cl)cc1C1(F)CCN(C2CCC3CCC2C3)CC1 (centres unmarked) [Compound 83]	25 to 100	+ (activity was measured to be greater than 5.0 μM)	25 to 100	+ (activity was measured to be greater than 5.0 μM)	< 25	+ (activity was measured to be greater than 5.0 μM)	25 to 100	++ (activity was measured to be from 1.0 μM to 5.0 μM)	–	–	–	–	–	–	–	–
FC(F)(F)Oc1ccccc1C1CCN(C2CCOCC2)CC1 [Compound 70]	25 to 100	+ (activity was measured to be greater than 5.0 μM)	< 25	+ (activity was measured to be greater than 5.0 μM)	< 25	+ (activity was measured to be greater than 5.0 μM)	25 to 100	++ (activity was measured to be from 1.0 μM to 5.0 μM)	–	–	–	–	–	–	–	–
OC1(c2cc(Cl)cc(Cl)c2)CCN(C2C[C@H]3CC[C@H]2C3)CC1 (some centres unmarked) [Compound 375]	–	+ (activity was measured to be greater than 5.0 μM)	–	+ (activity was measured to be greater than 5.0 μM)	–	+ (activity was measured to be greater than 5.0 μM)	–	+ (activity was measured to be greater than 5.0 μM)	–	–	–	–	< 25	< 25	< 25	25 to 100
COc1cc(F)c(F)cc1C1CCN([C@H]2C[C@H]3CC[C@H]2C3)CC1 [Compound 227]	25 to 100	+ (activity was measured to be greater than 5.0 μM)	< 25	+ (activity was measured to be greater than 5.0 μM)	< 25	+ (activity was measured to be greater than 5.0 μM)	25 to 100	++ (activity was measured to be from 1.0 μM to 5.0 μM)	–	–	–	–	–	–	–	–
COc1ccc(-c2ccc(S(C)(=O)=O)cc2)cc1C1CCN([C@H]2C[C@H]3CC[C@H]2C3)CC1 [Compound 102]	< 25	+ (activity was measured to be greater than 5.0 μM)	< 25	+ (activity was measured to be greater than 5.0 μM)	< 25	+ (activity was measured to be greater than 5.0 μM)	25 to 100	++ (activity was measured to be from 1.0 μM to 5.0 μM)	–	–	–	–	–	–	–	–
COc1ccc(C(=O)C(C)C)cc1C1CCN(C2CC3CC[C@H]2C3)CC1 (stereo in doubt) [Compound 222, 1-(3-(1-((1S,2R,4R)-bicyclo[2.2.1]heptan-2-yl)piperidin-4-yl)-4-methoxyphenyl)-2-methylpropan-1-one]	25 to 100	–	< 25	–	< 25	–	< 25	–	–	–	–	–	–	–	–	–
COc1ccc(-c2ccc(S(C)(=O)=O)cc2)cc1C1CCN(C2CCOCC2)CC1 [Compound 357]	< 25	+ (activity was measured to be greater than 5.0 μM)	< 25	+ (activity was measured to be greater than 5.0 μM)	< 25	+ (activity was measured to be greater than 5.0 μM)	< 25	+ (activity was measured to be greater than 5.0 μM)	–	–	–	–	–	–	–	–
